The text below walks through data of ChEMBL document CHEMBL3039007, “Structure-based identification of OATP1B1/3 inhibitors” (Mol Pharmacol, 2013).

The target in data set [1] is T1, Solute carrier organic anion transporter family member 1B3 (Homo sapiens, UniProt Q9NPD5).
T1 sequence (Q9NPD5 whole entry): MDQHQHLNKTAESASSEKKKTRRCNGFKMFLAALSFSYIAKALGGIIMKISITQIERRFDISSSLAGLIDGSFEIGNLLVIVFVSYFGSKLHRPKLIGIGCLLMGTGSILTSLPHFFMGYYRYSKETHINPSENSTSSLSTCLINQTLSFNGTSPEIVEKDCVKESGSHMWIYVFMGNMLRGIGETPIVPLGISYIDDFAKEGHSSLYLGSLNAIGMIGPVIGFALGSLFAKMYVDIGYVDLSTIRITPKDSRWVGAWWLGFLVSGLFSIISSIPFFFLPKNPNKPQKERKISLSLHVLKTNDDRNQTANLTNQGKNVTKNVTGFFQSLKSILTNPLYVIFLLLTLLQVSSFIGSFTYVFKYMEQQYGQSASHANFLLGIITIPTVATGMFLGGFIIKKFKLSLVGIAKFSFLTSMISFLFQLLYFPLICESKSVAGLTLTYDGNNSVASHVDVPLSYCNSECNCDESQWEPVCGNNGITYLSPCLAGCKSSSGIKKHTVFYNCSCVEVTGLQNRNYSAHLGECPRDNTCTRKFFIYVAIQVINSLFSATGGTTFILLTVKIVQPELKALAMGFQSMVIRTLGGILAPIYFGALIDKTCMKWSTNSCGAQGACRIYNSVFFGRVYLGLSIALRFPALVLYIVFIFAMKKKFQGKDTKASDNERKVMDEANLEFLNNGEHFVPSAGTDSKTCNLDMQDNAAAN
The following applies: chinese hamster, cho, 10 µM.

In data set [2] the target is T2, Solute carrier organic anion transporter family member 1B1 (Homo sapiens, UniProt Q9Y6L6).
T2 sequence (Q9Y6L6 whole entry): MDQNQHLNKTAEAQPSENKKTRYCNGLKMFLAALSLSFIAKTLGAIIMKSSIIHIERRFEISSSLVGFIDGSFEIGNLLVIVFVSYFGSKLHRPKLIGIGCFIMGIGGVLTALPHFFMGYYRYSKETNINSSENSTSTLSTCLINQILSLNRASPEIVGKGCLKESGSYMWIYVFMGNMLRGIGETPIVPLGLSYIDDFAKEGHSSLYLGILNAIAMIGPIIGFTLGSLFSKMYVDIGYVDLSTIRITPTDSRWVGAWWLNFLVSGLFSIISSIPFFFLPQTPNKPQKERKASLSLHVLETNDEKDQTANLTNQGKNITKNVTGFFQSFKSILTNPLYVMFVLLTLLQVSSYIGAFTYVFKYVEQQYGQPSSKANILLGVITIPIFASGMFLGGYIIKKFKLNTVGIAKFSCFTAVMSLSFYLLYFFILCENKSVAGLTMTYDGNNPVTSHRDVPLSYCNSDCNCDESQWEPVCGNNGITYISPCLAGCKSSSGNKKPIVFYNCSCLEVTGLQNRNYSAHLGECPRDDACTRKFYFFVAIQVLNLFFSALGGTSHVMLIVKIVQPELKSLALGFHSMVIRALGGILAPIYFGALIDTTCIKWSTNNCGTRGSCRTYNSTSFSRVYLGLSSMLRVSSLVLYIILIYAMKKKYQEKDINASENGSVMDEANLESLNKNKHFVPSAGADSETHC
To be noted: chinese hamster, cho, 10 µM.

Each structure is given as a SMILES string. Starred links: 1 amine or outer side, 2 acyl side, 3 side chain; linkers in the order of their positions; H or OH if unused. Positions of bridges follow the written chain, without caps; N, C: chain ends. Non-standard residues stand in square brackets, D forms with d. Residues, ends and D or L forms follow the SMILES beside them. ξ: configuration not given here. *: point of attachment. X1 = N=C1NCCC([C@H](N[*:1])C(=O)[*:2])N1; ΔAla(Z-3-ureido) = NC(=O)N/C=C(\N)C(=O)O; ξβ3hOrn = NCCCC(N)CC(=O)*; Dap = NC[C@H](N)C(=O)O

A word on the residual activity: it is the signal under treatment as a percentage of the control signal. As for `CC(C)c1c(O)c(-c2cc3c(c(C(C)C)c2O)CC[C@H]2C(C)(C)CCC[C@]32C)cc2c1CC[C@H]1C(C)(C)CCC[C@]21C`, the figures for the residual activity in data set [1] and in data set [2] were 91.38% and 64.65%, respectively.
Regarding `CC(=O)C1=C(O)C=C2Oc3c(C(C)=O)c(O)c(C)c(O)c3[C@@]2(C)C1=O` [(+)-USNIC ACID], the residual activity in data set [1] came to 69.13%; in data set [2] it was 31.05%.
As to `CCC(=O)OC1[C@@H]2CC3=C4CC(=O)O[C@@H](c5ccoc5)[C@]4(C)CCC3[C@@](C)(C2=O)[C@@H](CC(=O)OC)C1(C)C` (stereo partly specified) [KHAYASIN C], the residual activity in data set [1] is given as 67.18%; in data set [2], 59.29%.
Take `Nc1c2c(nc3ccccc13)CCCC2O.O=C(O)/C=C\C(=O)O` (stereo unspecified) [VELNACRINE MALEATE]: the residual activity in data set [1] was 96.75%; in data set [2] it was 103.3%.
Turning to `Clc1ccc(CO/N=C(\Cn2ccnc2)c2ccc(Cl)cc2Cl)c(Cl)c1.O=[N+]([O-])O` [OXICONAZOLE NITRATE], the results for the residual activity in data set [1] and in data set [2] were 122.3% and 116%, respectively.
`CC(C)[C@H]1CC[C@H](C(=O)N[C@H](Cc2ccccc2)C(=O)O)CC1` [NATEGLINIDE]: the residual activity in data set [1] is listed as 70.33%; in data set [2], 99.81%.
As for `O=C1c2c(O)cccc2Cc2cccc(O)c21` [ANTHRALIN], the residual activity in data set [1] is 90.63%; in data set [2] it was 86.38%.
For the compound `CC1/C(=N/O)C[C@@H]2C[C@H]1C2(C)C` (stereo partly specified) [3-PINANONE OXIME], the residual activity in data set [1] is listed as 123%; in data set [2], 95.73%.
For `Cc1occc(=O)c1/C=C/O` [2-METHYL-3-HYDROXYETHYLENEPYRAN-4-ONE] the same measures were 107% and 96.24%.
As for `CCN(CC)CCCC(C)Nc1ccnc2cc(Cl)ccc12.O=P(O)(O)O.O=P(O)(O)O` (stereo unspecified) [CHLOROQUINE PHOSPHATE], the results for the residual activity in data set [1] and in data set [2] were 99.18% and 84.34%, respectively.
The like results for `C[C@H](CCC(=O)O)[C@H]1CC[C@H]2[C@@H]3C(=O)C[C@@H]4CC(=O)CC[C@]4(C)[C@H]3CC(=O)[C@]12C` [DEHYDROCHOLIC ACID] were, in that order, 88.23% and 80.16%.
As for `C=CCN1CC[C@]23c4c5ccc(O)c4O[C@H]2C(=O)CC[C@@]3(O)[C@H]1C5.Cl` [NALOXONE HYDROCHLORIDE], the values for the residual activity in data set [1] and in data set [2] were 113.7% and 111.5%, respectively.
For the compound `CC[C@@]1(O)C[C@H](O[C@H]2C[C@H](N(C)C)[C@H](O)[C@H](C)O2)c2c(cc3c(c2O)C(=O)c2c(O)ccc(O)c2C3=O)[C@H]1C(=O)OC` [PYRROMYCIN], the figures for the residual activity in data set [1] and in data set [2] were 81.89% and 90.45%, respectively.
For `Oc1cccc(O)c1` [RESORCINOL] the same measures were 104.2% and 89.71%.
With `COc1cc(-c2coc3cc(OCc4ccccc4)c(OC)c(O)c3c2=O)cc(OCc2ccccc2)c1OC` [IRIGENIN, DIBENZYL ETHER], the results for the residual activity in data set [1] and in data set [2] were 93.33% and 92.09%, respectively.
Regarding `COc1c(N2C[C@@H]3CCCN[C@@H]3C2)c(F)cc2c(=O)c(C(=O)O)cn(C3CC3)c12.Cl` [MOXIFLOXACIN HYDROCHLORIDE], the results for the residual activity in data set [1] and in data set [2] were 94.01% and 106%, respectively.
As for `CC(C)N(C(=O)SCC(Cl)=C(Cl)Cl)C(C)C` [TRIALLATE], the residual activity in data set [1] was determined as 109.6%; in data set [2], 119.9%.
With `CC(C)(O)[C@@H]1Cc2cc3ccc(=O)oc3cc2O1` [MARMESIN], the residual activity in data set [1] is listed as 103.9%; in data set [2], 89.64%.
Turning to `NC(=O)c1ccc(N)nc1` [6-AMINONICOTINAMIDE], the residual activity in data set [1] was determined as 108.6%; in data set [2], 103.2%.
The like results for `O=C1N=C([O-])NC1(c1ccccc1)c1ccccc1.[Na+]` [PHENYTOIN SODIUM] were, in that order, 97.47% and 95.94%.
`CC(=O)[C@H]1CC[C@H]2[C@@H]3CC[C@H]4C[C@H](O)CC[C@]4(C)[C@H]3CC[C@]12C` [BREXANOLONE]: the residual activity worked out at 89.68% in data set [1] and 41.5% in data set [2].
Regarding `Nc1ncnc2c1ncn2[C@H]1C[C@H](O)[C@@H](CO)O1` [DEOXYADENOSINE], the residual activity in data set [1] is listed as 106.4%; in data set [2] it was 112.3%.
With `COc1c2c(cc3c1OCO3)CC[N+](C)=C2.[Cl-]` [COTARNINE CHLORIDE], the residual activity in data set [1] amounted to 93.29%; in data set [2], 85.95%.
As for `OC[C@H]1O[C@@H](Oc2ccc(O)cc2)[C@H](O)[C@@H](O)[C@@H]1O` [ARBUTIN], the results for the residual activity in data set [1] and in data set [2] were 113.4% and 103.7%, respectively.
On to `COC(=O)[C@@H]1OC(=O)[C@H]2O[C@]23[C@]2(C)[C@H](O)C[C@H]4C(C)(C)[C@H](OC(C)=O)C[C@H](OC(C)=O)[C@]4(C)[C@H]2CC[C@@]13C`, for which the residual activity in data set [1] was determined as 83.24%; in data set [2] it was 70.09%.
For `CCOC(=O)[C@H](CCc1ccccc1)N[C@@H](C)C(=O)N1CCC[C@H]1C(=O)O.O=C(O)/C=C\C(=O)O` [ENALAPRIL MALEATE] the same measures were 110.9% and 190.1%.
For `COc1cc(C/C=C/c2ccccc2)c(OC)cc1O` [VIOLASTYRENE], the residual activity was 47.88% in data set [1] and 27.49% in data set [2].
For `C[C@@H]1NC(=O)[C@@H](N)CNC(=O)[C@H](C2CCNC(=N)N2)NC(=O)/C(=C/NC(N)=O)NC(=O)[C@H](CNC(=O)CC(N)CCCN)NC1=O.N=C1NCCC([C@@H]2NC(=O)/C(=C/NC(N)=O)NC(=O)[C@H](CNC(=O)CC(N)CCCN)NC(=O)[C@H](CO)NC(=O)[C@@H](N)CNC2=O)N1.O=S(=O)(O)O.O=S(=O)(O)O` (stereo partly drawn) [CAPREOMYCIN SULFATE] (H-[Dap]S[Dap](ξβ3hOrn)[ΔAla(Z-3-ureido)][X1]; lactam 1-C), the figures for the residual activity in data set [1] and in data set [2] were 80.84% and 89.76%, respectively.
For `CC1(C)NC(=O)N(c2ccc([N+](=O)[O-])c(C(F)(F)F)c2)C1=O` [NILUTAMIDE] the same measures were 97.83% and 116.6%.
For `S=C=NCc1ccccc1` [BENZYL ISOTHIOCYANATE] the same measures were 101.9% and 170.7%.
As for `O=c1c(O)c(-c2ccccc2)oc2ccccc12` [FLAVONOL], the figures for the residual activity in data set [1] and in data set [2] were 102.6% and 133.5%, respectively.
As to `CCOC(=O)[C@H](CCc1ccccc1)N[C@@H](C)C(=O)N1Cc2ccccc2C[C@H]1C(=O)O.Cl` [QUINAPRIL HYDROCHLORIDE], the residual activity in data set [1] was found to be 98.34%; in data set [2], 109.5%.
Take `CCCCC[C@@H](O)[C@H]1C(=O)O[C@H](C)[C@@H](O)/C=C/C=C/C=C/C=C/C=C(\C)[C@@H](O)C[C@H](O)C[C@H](O)C[C@H](O)C[C@H](O)C[C@H](O)C[C@@H]1O` [FILIPIN]: the values for the residual activity in data set [1] and in data set [2] were 93.93% and 96.46%, respectively.
